From US20110166121A1 (LG LIFE SCIENCES LTD., priority 2008, published 2011)

System: Human platelet aggregation caused by ADP
Assay: Inhibition of ADP-induced platelet aggregation (Mimic-human PRP)
Type: cell-based
Settings: 20 μM ADP, human platelet concentrate diluted with PPP, absorption at 595 nm
Outline: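 Ki came from non-linear sigmoidal fits of inhibition, measured as the 3-min rise in absorbance at 595 nm after 20 μM ADP, relative to 0/20 μM ADP controls. Platelets (3–4×10^8/mL in PPP-diluted human PRP) were exposed to 0.01–30 μM compound for 20 min at room temperature beforehand.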

Row | SMILES | Ki
1 | CCCc1cc2c(N3CCn4c(nnc4C(F)(F)F)C3)nc(NCCc3c[nH]cn3)nc2s1 [Example 9-45, [2-(1H-Imidazol-4-yl)-ethyl]-[6-propyl-4-(3-trifluoromethyl-5,6-dihydro-8H-[1,2,4]triazolo[4,3-a]pyrazin-7-yl)-thieno[2,3-d]pyrimidin-2-yl]-amine] | 38 nM
2 | CCCc1cc2c(N3CCn4c(nnc4C(F)(F)F)C3)nc(-n3cnc(CCN)c3)nc2s1 [Example 9-46, 2-{1-[6-Propyl-4-(3-trifluoromethyl-5,6-dihydro-8H-[1,2,4]triazolo[4,3-a]pyrazin-7-yl)-thieno[2,3-d]pyrimidin-2-yl]-1H-imidazol-4-yl}-ethylamine] | 530 nM
3 | CCCc1cc2c(N3CCn4c(nnc4C(F)(F)F)C3)nc(-n3ccc([N+](=O)[O-])c3)nc2s1 [Example 9-47, 7-[2-(3-Nitro-pyrrole-1-yl)-6-propyl-thieno[2,3-d]pyrimidin-4-yl]-3-trifluoromethyl-5,6,7,8-tetrahydro-[1,2,4]triazolo[4,3-a]pyrazine] | 3900 nM
4 | CCCc1cc2c(N3CCn4c(nnc4C(F)(F)F)C3)nc(N(CCO)c3cnccn3)nc2s1 [Example 9-50, 2-{[6-Propyl-4-(3-trifluoromethyl-5,6-dihydro-8H-[1,2,4]triazolo[4,3-a]pyrazin-7-yl)-thieno[2,3-d]pyrimidin-2-yl]-pyrazin-2-yl-amino}-ethanol] | 230 nM
5 | CCCc1cc2c(N3CCn4c(nnc4C(F)(F)F)C3)nc(N3CC(=O)N(CCO)C3=O)nc2s1 [Example 9-51, 3-(2-Hydroxy-ethyl)-1-[6-propyl-4-(3-trifluoromethyl-5,6-dihydro-8H-[1,2,4]triazolo[4,3-a]pyrazin-7-yl)-thieno[2,3-d]pyrimidin-2-yl]-imidazolidine-2,4-dione] | 190 nM
6 | CCCc1cc2c(N3CCn4c(nnc4C(F)(F)F)C3)nc(-n3ccc(N)n3)nc2s1 [Example 9-52, 1-[6-Propyl-4-(3-trifluoromethyl-5,6-dihydro-8H-[1,2,4]triazolo[4,3-a]pyrazin-7-yl)-thieno[2,3-d]pyrimidin-2-yl]-1H-pyrazol-3-ylamine] | 16 nM
7 | CCCc1cc2c(N3CCn4c(nnc4C(F)(F)F)C3)nc(Nc3cc[nH]n3)nc2s1 [Example 9-53, [6-Propyl-4-(3-trifluoromethyl-5,6-dihydro-8H-[1,2,4]triazolo[4,3-a]pyrazin-7-yl)-thieno[2,3-d]pyrimidin-2-yl]-(1H-pyrazol-3-yl)-amine] | 31 nM
8 | CCCc1cc2c(N3CCn4c(nnc4C(F)(F)F)C3)nc(-n3ccc(NC(C)=O)n3)nc2s1 [Example 9-54, N-{1-[6-Propyl-4-(3-trifluoromethyl-5,6-dihydro-8H-[1,2,4]triazolo[4,3-a]pyrazin-7-yl)-thieno[2,3-d]pyrimidin-2-yl]-1H-pyrazol-3-yl}-acetamide] | 130 nM
9 | CCCc1cc2c(N3CCn4c(nnc4C(F)(F)F)C3)nc(-n3cc(C)cn3)nc2s1 [Example 9-55, 7-[2-(4-Methyl-pyrazol-1-yl)-6-propyl-thieno[2,3-d]pyrimidin-4-yl]-3-trifluoromethyl-5,6,7,8-tetrahydro-[1,2,4]triazolo[4,3-a]pyrazine] | 340 nM
10 | CCCc1cc2c(N3CCn4c(nnc4C(F)(F)F)C3)nc(-n3cc(N)cn3)nc2s1 [Example 9-56, 1-[6-Propyl-4-(3-trifluoromethyl-5,6-dihydro-8H-[1,2,4]triazolo[4,3-a]pyrazin-7-yl)-thieno[2,3-d]pyrimidin-2-yl]-1H-pyrazol-4-ylamine] | 30 nM
11 | CCCc1cc2c(N3CCn4c(nnc4C(F)(F)F)C3)nc(-n3cc(NC(C)=O)cn3)nc2s1 [Example 9-57, N-{1-[6-Propyl-4-(3-trifluoromethyl-5,6-dihydro-8H-[1,2,4]triazolo[4,3-a]pyrazin-7-yl)-thieno[2,3-d]pyrimidin-2-yl]-1H-pyrazol-4-yl}-acetamide] | 410 nM
12 | CCCc1cc2c(N3CCn4c(nnc4C(F)(F)F)C3)nc(Nc3cn[nH]c3)nc2s1 [Example 9-58, [6-Propyl-4-(3-trifluoromethyl-5,6-dihydro-8H-[1,2,4]triazolo[4,3-a]pyrazin-7-yl)-thieno[2,3-d]pyrimidin-2-yl]-(1H-pyrazol-4-yl)-amine] | 22 nM
13 | CCCc1cc2c(N3CCn4c(nnc4C(F)(F)F)C3=O)nc(OCCC(=O)O)nc2s1 [Example 9-59, 3-[4-(8-Oxo-3-trifluoromethyl-5,6-dihydro-8H-[1,2,4]triazolo[4,3-a]pyrazin-7-yl)-6-propyl-thieno[2,3-d]pyrimidin-2-yloxy]-propionic acid] | > 10000 nM
14 | CCC(=O)c1cc2c(N3CCn4c(nnc4C(F)(F)F)C3)nc(OCCC(=O)O)nc2s1 [Example 9-61, 3-[6-Propionyl-4-(3-trifluoromethyl-5,6-dihydro-8H-[1,2,4]triazolo[4,3-a]pyrazin-7-yl)-thieno[2,3-d]pyrimidin-2-yloxy]-propionic acid] | > 10000 nM
15 | CCCCNC(=O)[C@H]1CCN(c2nc(N3CCn4c(nnc4C(F)(F)F)C3)c3cc(CCC)sc3n2)C1 [Example 9-62, (S)-1-[6-Propyl-4-(3-trifluoromethyl-5,6-dihydro-8H-[1,2,4]triazolo[4,3-a]pyrazin-7-yl)-thieno[2,3-d]pyrimidin-2-yl]-pyrrolidine-3-carboxylic acid butylamide] | 400 nM
16 | CCCCN(C)C(=O)[C@H]1CCN(c2nc(N3CCn4c(nnc4C(F)(F)F)C3)c3cc(CCC)sc3n2)C1 [Example 9-63, (S)-1-[6-Propyl-4-(3-trifluoromethyl-5,6-dihydro-8H-[1,2,4]triazolo[4,3-a]pyrazin-7-yl)-thieno[2,3-d]pyrimidin-2-yl]-pyrrolidine-3-carboxylic acid butyl-methyl-amide] | 2000 nM
17 | CCCc1cc2c(N3CCn4c(nnc4C(F)(F)F)C3)nc(N3CC[C@H](C(=O)NC4CCCC4)C3)nc2s1 [Example 9-64, (S)-1-[6-Propyl-4-(3-trifluoromethyl-5,6-dihydro-8H-[1,2,4]triazolo[4,3-a]pyrazin7-yl)-thieno[2,3-d]pyrimidin-2-yl]-pyrrolidine-3-carboxylic acid cyclopentylamide] | 1400 nM
18 | CCCc1cc2c(N3CCn4c(nnc4C(F)(F)F)C3)nc(N3CC[C@H](C(=O)N(C)C4CCCCC4)C3)nc2s1 [Example 9-65] | 9300 nM
19 | CCCc1cc2c(N3CCn4c(nnc4C(F)(F)F)C3)nc(OCCC(=O)NC)nc2s1 [Example 9-66, N-Methyl-3-[6-propyl-4-(3-trifluoromethyl-5,6-dihydro-8H-[1,2,4]triazolo[4,3-a]pyrazin-7-yl)-thieno[2,3-d]pyrimidin-2-yloxy]-propionamide] | 5.2 nM
20 | CCCc1cc2c(N3CCn4c(nnc4C(F)(F)F)C3)nc(OCCC(=O)N(C)C)nc2s1 [Example 9-67, N,N-Dimethyl-3-[6-propyl-4-(3-trifluoromethyl-5,6-dihydro-8H-[1,2,4]triazolo[4,3-a]pyrazin-7-yl)-thieno[2,3-d]pyrimidin-2-yloxy]-propionamide] | 97 nM
21 | CCCc1cc2c(N3CCn4c(nnc4C(F)(F)F)C3)nc(OCCC(=O)N3CCCC3)nc2s1 [Example 9-68, 3-[6-Propyl-4-(3-trifluoromethyl-5,6-dihydro-8H-[1,2,4]triazolo[4,3-a]pyrazin-7-yl)-thieno[2,3-d]pyrimidin-2-yloxy]-1-pyrrolidin-1-yl-propan-1-one] | 260 nM
